From article PMC11845477, “Exploring the principles behind antibiotics with limited resistance” (Nature Communications, 2025)
Where two headings read alike, the source gives them in different places.

Experiments:
[1] = test system: K. pneumoniae ATCC 10031 (SEN) and K. pneumoniae ATCC 700603 (MDR); experiment: Frequency-of-resistance (FoR) assay, relative MIC of mutants; type: cell-based, Klebsiella pneumoniae; settings: for Relative MIC: Klebsiella pneumoniae ATCC 10031 (KP-SEN); for MIC: Klebsiella pneumoniae, read-out: MIC of evolved line, Klebsiella pneumoniae ATCC 10031 (KP-SEN)
Procedure: (§1) The susceptibility of antibiotics to resistance development was evaluated in two strains of each bacterial species: a multidrug-resistant strain and an antibiotic-sensitive strain of Escherichia coli, Klebsiella pneumoniae, Acinetobacter baumannii, and Pseudomonas aeruginosa. To explore first-step resistance, we previously used a standard protocol for spontaneous frequency-of-resistance analysis (FoR assay) at multiple concentrations of each antibiotic[10],[28],[31]–[33]. […] For all other combinations, approximately 10^10 bacterial cells were exposed to one of each antibiotic on agar plates for two days at concentrations where the given strain is susceptible. We examined resistance levels by contrasting the minimum inhibitory concentration (MICs) of the mutated strains to the original wild-type bacterial strain (i.e., relative MIC).
(§2) To estimate the frequency of spontaneous mutations that confer resistance in a microbial population, we conducted a frequency of resistance (FoR) assay following established protocols[10],[31]–[33]. […] Prior to plating, bacteria were grown overnight in MHB medium at 37 °C and 250 RPM, then centrifuged and washed in MHB. All experiments were performed in triplicate, and plates were incubated at 37 °C for 48 hours. Total colony-forming units (CFUs) were determined by plating appropriate dilutions onto antibiotic-free MHB agar. Resistance frequencies were calculated by dividing the number of resistant colonies by the initial viable cell count. From the plates with the highest antibiotic concentration, ten colonies were selected for MIC determination and whole-genome sequencing.
(§3) A robotic liquid handling system was used to automatically prepare a 11 to 16-step serial dilution in 384-well microtiter plates (Greiner). A final concentration of 5 × 10^5 bacterial cells per mL were inoculated into each well containing 60 µL MHB medium. Bacterial cultures were incubated at 37 °C with continuous shaking (Infors shaker, 900 rpm with 3 mm throw) for 18 hours (2 replicates from each). Cell growth was monitored by measuring the optical density (OD600 values, using Biotek Synergy microplate reader). MIC was defined as the antibiotic concentration of complete growth inhibition (i.e., OD600 < 0.05). Relative MIC was calculated as follows:1 relativeMIC=MICevolved/MICancestor […]
(§4) Supplementary Figure 3. Resistance levels following the frequency of resistance assay across bacterial strains. The level of resistance was measured as the fold change in relative MIC between evolved and ancestral strains. Data are grouped by bacterial strain (A. baumannii (AB), E. coli (EC), K. pneumoniae (KP), and P. aeruginosa (PA)) and categorized as either multidrug-resistant (MDR) or sensitive (SEN). Each data point represents a laboratory evolved line, and boxplots show the median, first and third quartiles, with whiskers indicating the 5th and 95th percentiles. […]
(§5) analysis was performed using two-sided Dunn’s post-hoc test with Benjamini-Hochberg correction for multiple comparisons (**/ * indicates p < 0.01/ 0.05). For detailed information on antibiotic and bacterial species, see Supplementary Table 1. For mode of action groups, refer to Table 1. Source data are provided as a Source Data file.

[2] = test system: E. coli ATCC 25922 (SEN) and E. coli NCTC13846 (MDR); experiment: Adaptive laboratory evolution (ALE), relative MIC of evolved lines; type: cell-based, Escherichia coli; settings: for Relative MIC (log10): EC-SEN (Escherichia coli ATCC 25922)
Description: Using the same set of bacterial strains, we initiated adaptive laboratory evolution with the aim to maximize the level of antibiotic resistance in the populations achieved during a longer, but fixed time period.
An established protocol for adaptive laboratory evolution[46],[73] was followed to propagate populations with the highest resistance levels. Starting with an antibiotic concentration that caused approximately 50% growth inhibition, ten parallel populations for each antibiotic-ancestor strain combination were grown for 72 hours at 37 °C with continuous shaking (300 RPM). MHB broth medium was used unless stated otherwise. After each incubation, 20 µl of each culture was transferred to four new wells containing fresh medium with increasing antibiotic concentrations (0.5×, 1×, 1.5×, and 2.5× the previous concentration) in a chessboard layout to monitor potential cross-contamination. Growth was monitored by measuring OD600 using a Biotek Synergy 2 microplate reader, and only populations grown in the highest drug concentration with an OD600 > 0.2 were transferred further.
as §3
Supplementary Figure 4. Resistance levels following adaptive laboratory evolution across bacterial strains. The level of resistance was measured as the fold change in relative MIC between evolved and ancestral strains after ~60 days of adaptive laboratory evolution. Data are grouped by bacterial strain (A. baumannii (AB), E. coli (EC), K. pneumoniae (KP), and P. aeruginosa (PA)) and categorized as either multidrug-resistant (MDR) or sensitive (SEN). Each data point represents a laboratory evolved line, and boxplots show the median, first and third quartiles, with whiskers indicating the 5th and 95th percentiles.
as §5, with “Statistical analysis” for “analysis”, “(****/ ***/ **/” for “(**/”, “< 0.0001/ 0.001/” for “<”
(1 picture or pasted object on this page, not shown here)

[3] = test system: A. baumannii ATCC 17978 (SEN) and A. baumannii ATCC BAA-1605 (MDR); experiment: Frequency-of-resistance (FoR) assay, relative MIC of mutants; type: cell-based, Acinetobacter baumannii; settings: Acinetobacter baumannii ATCC 17978 (AB-SEN)
Procedure: as §1, §2, §3, §4, §5

C[C@H]1c2cccc(O)c2C(=O)C2=C(O)[C@]3(O)C(=O)C(C(N)=O)=C(O)[C@@H](N(C)C)[C@@H]3[C@@H](O)[C@@H]21 [Doxycycline]
Relative MIC ([1]; evolved line 1 versus ancestor): 4
Relative MIC ([1]; evolved line 2 versus ancestor): 4
Relative MIC ([1]; evolved line 3 versus ancestor): 2
MIC ([1]; evolved line 1): 1 µg/mL
MIC ([1]; evolved line 2): 1 µg/mL
MIC ([1]; evolved line 3): 0.5 µg/mL
Relative MIC ([2]; EC-SEN (ATCC 25922), evolved line 1, MIC of evolved line / MIC of ancestor): 32
Relative MIC ([2]; EC-SEN (ATCC 25922), evolved line 2, MIC of evolved line / MIC of ancestor): 16
Relative MIC ([2]; EC-SEN (ATCC 25922), evolved line 3, MIC of evolved line / MIC of ancestor): 32
Relative MIC ([2]; EC-SEN (ATCC 25922), evolved line 4, MIC of evolved line / MIC of ancestor): 128
Relative MIC ([2]; EC-SEN (ATCC 25922), evolved line 6, MIC of evolved line / MIC of ancestor): 8
Relative MIC ([2]; EC-SEN (ATCC 25922), evolved line 7, MIC of evolved line / MIC of ancestor): 16
Relative MIC ([2]; EC-SEN (ATCC 25922), evolved line 8, MIC of evolved line / MIC of ancestor): 32
Relative MIC ([2]; EC-SEN (ATCC 25922), evolved line 9, MIC of evolved line / MIC of ancestor): 16
Relative MIC ([2]; EC-SEN (ATCC 25922), evolved line 10, MIC of evolved line / MIC of ancestor): 16
Relative MIC (log10) ([2]; evolved line 1 adapted to the named antibiotic): 1.505
Relative MIC (log10) ([2]; evolved line 2 adapted to the named antibiotic): 1.204
Relative MIC (log10) ([2]; evolved line 3 adapted to the named antibiotic): 1.505
Relative MIC (log10) ([2]; evolved line 8 adapted to the named antibiotic): 1.505
Relative MIC (log10) ([2]; evolved line 9 adapted to the named antibiotic): 1.204
Relative MIC ([2]; Escherichia coli ATCC 25922 (EC-SEN), evolved line 1): 32
Relative MIC ([2]; Escherichia coli ATCC 25922 (EC-SEN), evolved line 2): 16
Relative MIC ([2]; Escherichia coli ATCC 25922 (EC-SEN), evolved line 3): 32
Relative MIC ([2]; Escherichia coli ATCC 25922 (EC-SEN), evolved line 4): 128
Relative MIC ([2]; Escherichia coli ATCC 25922 (EC-SEN), evolved line 6): 8
Relative MIC ([2]; Escherichia coli ATCC 25922 (EC-SEN), evolved line 7): 16
Relative MIC ([2]; Escherichia coli ATCC 25922 (EC-SEN), evolved line 8): 32
Relative MIC ([2]; Escherichia coli ATCC 25922 (EC-SEN), evolved line 9): 16
Relative MIC ([2]; Escherichia coli ATCC 25922 (EC-SEN), evolved line 10): 16
Relative MIC ([3]; evolved line 1 versus ancestor): 1
Relative MIC ([3]; evolved line 2 versus ancestor): 1
Relative MIC ([3]; evolved line 3 versus ancestor): 1
